We go through 1 molecule from patent US20070197586A1, “8-Hydroxy-5-[(-Hydroxy-2-[[ (1R)-2-(4-Methoxyphenyl)-1-Methylethyl] Amino][Ethyl]-2(1H)-Quinolinone Monohydrochloride In Crystalline Form And The Process For Its Preparation” (Chiesi Farmaceutici S.p.A., priority 2004, published 2007).

Molecules are shown by their SMILES.

The nature of this data set: Crystalline degree by in-house DSC method (heat of fusion vs 100% crystalline reference standard). The class given is physicochemical. The settings on record: samples as such and after grinding or micronization; DSC scan rate 130° C./min; maintained after grinding and micronization. On the procedure:
The crystalline degree of the compound has been determined according to a differential scanning calorimetry (DSC) method developed in-house based on the measurement of the heat of fusion.
Said method uses a scan rate of 130° C./min to evaluate the percentage of crystalline compound in a sample by determining the ratio between the ΔH (heat of fusion) of the sample with respect to the ΔH of a 100% crystalline reference standard, determined in the same range of temperature and in the same experimental conditions. The 100% crystalline reference standard was prepared by suspending the compound in ethanol, then filtering to eliminate the residual amorphous compound dissolved in ethanol, and drying.
The method was applied to samples of the compound of the Example as such, and after grinding or micronization.

Consider `COc1ccc(C[C@@H](C)NC[C@H](O)c2ccc(O)c3[nH]c(=O)ccc23)cc1.Cl` [compound of the Example, 8-hydroxy-5-[(1R)-1-hydroxy-2-[[(1R)-2-(4-methoxyphenyl)-1-methylethyl]amino]ethyl]-2(1H)-quinolinone monohydrochloride], for which the cristallinity degree entry is reported as “higher than 90%”.
